Earlier results on one molecule are cited in US20120263714A1, “SUBSTITUTED HALOPHENOXYBENZAMIDE DERIVATIVES” (BAYER INTELLECTUAL PROPERTY GMBH, priority 2009, published 2012).

The test system of data set [1] is colon cancer. The settings on record: oral treatment, mouse models.
Data set [2] concerns MEK1/2. The conditions noted are these: MEK1/2 inhibitor, background statement.

`O=C(NOCC1CC1)c1ccc(F)c(F)c1Nc1ccc(I)cc1Cl` [CI-1040]: the “colon cancer growth in vivo” value in data set [1] is recorded as “inhibit colon cancer growth in vivo”. The IC50 entry in data set [2] is “low nanomolar range”.
